Test results published in the supplement of paper PMC10132981, “Formate overflow drives toxic folate trapping in MTHFD1 inhibited cancer cells” (Nature Metabolism, 2023).

Assays:
[1] = tested on: PA-TU-8988T; assay: EC50 for viability (resazurin, 96 h); settings: DMEM+GlutaMAX (5% dFBS, 1% P/S)
[2] = tested on: SW620 MTHFD2-/-; assay: cell viability relative to vehicle (resazurin, 96 h); higher = more viable; settings: base medium: RPMI + dialysed FBS
Experimental: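 SW620 WT or MTHFD2-/- cells were treated for 96 h with a compound dilution series (log10 M) in RPMI with normal or dialysed FBS. Viability was read by resazurin and is given as % of vehicle.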

[3] = tested on: HCT116; assay: cell viability relative to lowest-dose well (resazurin, 96 h); higher = more viable; settings: RPMI + 10% FBS
Procedure, shortened: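 Compounds from 10 mM DMSO stocks were dispensed as dilution series onto HCT116 (500 cells/well) or SW620 (1,000 cells/well) cells growing in 384-well plates in 50 µl RPMI, 10% FBS and a metabolite supplement. Plates were incubated 96 h at 37 °C, 5% CO2, then resazurin (10 µg ml^−1) was added and its conversion to resorufin read by fluorescence at 595 nm after 5 h. Viability is shown as percent of the lowest-dose well for independent replicate cultures.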

Nc1nc(N)c(CC(=O)Nc2cnc(C(=O)N[C@@H](CCC(=O)O)C(=O)O)c(F)c2)c(=O)[nH]1 [TH9619]
Settings	EC50 for viability [nM]
[1], metabolite supplement: Thymidine	29.5

CN(Cc1cnc2nc(N)nc(N)c2n1)c1ccc(C(=O)N[C@@H](CCC(=O)O)C(=O)O)cc1 [methotrexate]
Settings	EC50 for viability [nM]	cell viability [%]
[1], metabolite supplement: Hypoxanthine	237	–
[1], metabolite supplement: Sodium Formate	85.5	–
[1], metabolite supplement: Thymidine	50	–
[2], log10 compound concentration (M): -6, supplement / serum: 50 μM Hypoxanthine	–	6.45
[2], log10 compound concentration (M): -6, supplement / serum: 50 μM Thymidine	–	6.68
[2], log10 compound concentration (M): -6, supplement / serum: 50 μM Thymidine + 50 μM Hypoxanthine	–	111
[2], log10 compound concentration (M): -6, supplement / serum: Hypoxanthine	–	6.76
[2], log10 compound concentration (M): -6, supplement / serum: Hypoxanthine+Sodium Formate	–	6.18
[2], log10 compound concentration (M): -6, supplement / serum: Hypoxanthine+Sodium Formate+Thymidine	–	93.3
[2], log10 compound concentration (M): -6, supplement / serum: No metabolite	–	7.7
[2], log10 compound concentration (M): -6, supplement / serum: Sodium Formate	–	7.05
[2], log10 compound concentration (M): -6, supplement / serum: Vehicle	–	7.38
[2], log10 compound concentration (M): -6.47712, supplement / serum: 50 μM Hypoxanthine	–	6.99
[2], log10 compound concentration (M): -6.47712, supplement / serum: 50 μM Thymidine	–	7.63
[2], log10 compound concentration (M): -6.47712, supplement / serum: 50 μM Thymidine + 50 μM Hypoxanthine	–	115
[2], log10 compound concentration (M): -6.47712, supplement / serum: Hypoxanthine	–	7.12
[2], log10 compound concentration (M): -6.47712, supplement / serum: Hypoxanthine+Sodium Formate	–	6.79
[2], log10 compound concentration (M): -6.47712, supplement / serum: Hypoxanthine+Sodium Formate+Thymidine	–	112
[2], log10 compound concentration (M): -6.47712, supplement / serum: No metabolite	–	7.99
[2], log10 compound concentration (M): -6.47712, supplement / serum: Sodium Formate	–	7.19
[2], log10 compound concentration (M): -6.47712, supplement / serum: Vehicle	–	7.78
[2], log10 compound concentration (M): -6.95424, supplement / serum: 50 μM Hypoxanthine	–	7.25
[2], log10 compound concentration (M): -6.95424, supplement / serum: 50 μM Thymidine	–	7.71
[2], log10 compound concentration (M): -6.95424, supplement / serum: 50 μM Thymidine + 50 μM Hypoxanthine	–	111
[2], log10 compound concentration (M): -6.95424, supplement / serum: Hypoxanthine	–	7.47
[2], log10 compound concentration (M): -6.95424, supplement / serum: Hypoxanthine+Sodium Formate	–	7.62
[2], log10 compound concentration (M): -6.95424, supplement / serum: Hypoxanthine+Sodium Formate+Thymidine	–	107
[2], log10 compound concentration (M): -6.95424, supplement / serum: No metabolite	–	8.02
[2], log10 compound concentration (M): -6.95424, supplement / serum: Sodium Formate	–	7.59
[2], log10 compound concentration (M): -6.95424, supplement / serum: Vehicle	–	7.71
[2], log10 compound concentration (M): -7.43136, supplement / serum: 50 μM Hypoxanthine	–	14.5
[2], log10 compound concentration (M): -7.43136, supplement / serum: 50 μM Thymidine	–	7.18
[2], log10 compound concentration (M): -7.43136, supplement / serum: 50 μM Thymidine + 50 μM Hypoxanthine	–	95.6
[2], log10 compound concentration (M): -7.43136, supplement / serum: Hypoxanthine	–	11.5
[2], log10 compound concentration (M): -7.43136, supplement / serum: Hypoxanthine+Sodium Formate	–	11.1
[2], log10 compound concentration (M): -7.43136, supplement / serum: Hypoxanthine+Sodium Formate+Thymidine	–	98.6
[2], log10 compound concentration (M): -7.43136, supplement / serum: No metabolite	–	7.722
[2], log10 compound concentration (M): -7.43136, supplement / serum: Sodium Formate	–	7.53
[2], log10 compound concentration (M): -7.43136, supplement / serum: Vehicle	–	7.22
[2], log10 compound concentration (M): -7.90849, supplement / serum: 50 μM Hypoxanthine	–	70.7
[2], log10 compound concentration (M): -7.90849, supplement / serum: 50 μM Thymidine	–	12.3
[2], log10 compound concentration (M): -7.90849, supplement / serum: 50 μM Thymidine + 50 μM Hypoxanthine	–	106
[2], log10 compound concentration (M): -7.90849, supplement / serum: Hypoxanthine	–	54.5
[2], log10 compound concentration (M): -7.90849, supplement / serum: Hypoxanthine+Sodium Formate	–	55.4
[2], log10 compound concentration (M): -7.90849, supplement / serum: Hypoxanthine+Sodium Formate+Thymidine	–	102
[2], log10 compound concentration (M): -7.90849, supplement / serum: No metabolite	–	10.5
[2], log10 compound concentration (M): -7.90849, supplement / serum: Sodium Formate	–	11.5
[2], log10 compound concentration (M): -7.90849, supplement / serum: Vehicle	–	8.29
[2], log10 compound concentration (M): -8.38561, supplement / serum: 50 μM Hypoxanthine	–	76.3
[2], log10 compound concentration (M): -8.38561, supplement / serum: 50 μM Thymidine	–	14.7
[2], log10 compound concentration (M): -8.38561, supplement / serum: 50 μM Thymidine + 50 μM Hypoxanthine	–	102
[2], log10 compound concentration (M): -8.38561, supplement / serum: Hypoxanthine	–	74.7
[2], log10 compound concentration (M): -8.38561, supplement / serum: Hypoxanthine+Sodium Formate	–	79.4
[2], log10 compound concentration (M): -8.38561, supplement / serum: Hypoxanthine+Sodium Formate+Thymidine	–	84.7
[2], log10 compound concentration (M): -8.38561, supplement / serum: No metabolite	–	9.121
[2], log10 compound concentration (M): -8.38561, supplement / serum: Sodium Formate	–	33.1
[2], log10 compound concentration (M): -8.38561, supplement / serum: Vehicle	–	15.5
[2], log10 compound concentration (M): -8.86273, supplement / serum: 50 μM Hypoxanthine	–	92.6
[2], log10 compound concentration (M): -8.86273, supplement / serum: 50 μM Thymidine	–	66.7
[2], log10 compound concentration (M): -8.86273, supplement / serum: 50 μM Thymidine + 50 μM Hypoxanthine	–	109
[2], log10 compound concentration (M): -8.86273, supplement / serum: Hypoxanthine	–	92.5
[2], log10 compound concentration (M): -8.86273, supplement / serum: Hypoxanthine+Sodium Formate	–	97.5
[2], log10 compound concentration (M): -8.86273, supplement / serum: Hypoxanthine+Sodium Formate+Thymidine	–	91.4
[2], log10 compound concentration (M): -8.86273, supplement / serum: No metabolite	–	47.4
[2], log10 compound concentration (M): -8.86273, supplement / serum: Sodium Formate	–	72.7
[2], log10 compound concentration (M): -8.86273, supplement / serum: Vehicle	–	45.5
[2], log10 compound concentration (M): -9.33985, supplement / serum: 50 μM Hypoxanthine	–	100
[2], log10 compound concentration (M): -9.33985, supplement / serum: 50 μM Thymidine	–	87.7
[2], log10 compound concentration (M): -9.33985, supplement / serum: 50 μM Thymidine + 50 μM Hypoxanthine	–	102
[2], log10 compound concentration (M): -9.33985, supplement / serum: Hypoxanthine	–	92.7
[2], log10 compound concentration (M): -9.33985, supplement / serum: Hypoxanthine+Sodium Formate	–	96.4
[2], log10 compound concentration (M): -9.33985, supplement / serum: Hypoxanthine+Sodium Formate+Thymidine	–	98.6
[2], log10 compound concentration (M): -9.33985, supplement / serum: No metabolite	–	82.1
[2], log10 compound concentration (M): -9.33985, supplement / serum: Sodium Formate	–	101
[2], log10 compound concentration (M): -9.33985, supplement / serum: Vehicle	–	80.1
[2], log10 compound concentration (M): -9.81697, supplement / serum: 50 μM Hypoxanthine	–	95.3
[2], log10 compound concentration (M): -9.81697, supplement / serum: 50 μM Thymidine	–	109.8
[2], log10 compound concentration (M): -9.81697, supplement / serum: 50 μM Thymidine + 50 μM Hypoxanthine	–	104
[2], log10 compound concentration (M): -9.81697, supplement / serum: Hypoxanthine	–	102
[2], log10 compound concentration (M): -9.81697, supplement / serum: Hypoxanthine+Sodium Formate	–	100
[2], log10 compound concentration (M): -9.81697, supplement / serum: Hypoxanthine+Sodium Formate+Thymidine	–	98.5
[2], log10 compound concentration (M): -9.81697, supplement / serum: No metabolite	–	97.9
[2], log10 compound concentration (M): -9.81697, supplement / serum: Sodium Formate	–	97.9
[2], log10 compound concentration (M): -9.81697, supplement / serum: Vehicle	–	94.8
[2], log10 compound concentration (M): -10.2941, supplement / serum: 50 μM Hypoxanthine	–	105
[2], log10 compound concentration (M): -10.2941, supplement / serum: 50 μM Thymidine	–	93.5
[2], log10 compound concentration (M): -10.2941, supplement / serum: 50 μM Thymidine + 50 μM Hypoxanthine	–	103
[2], log10 compound concentration (M): -10.2941, supplement / serum: Hypoxanthine	–	91
[2], log10 compound concentration (M): -10.2941, supplement / serum: Hypoxanthine+Sodium Formate	–	96.2
[2], log10 compound concentration (M): -10.2941, supplement / serum: Hypoxanthine+Sodium Formate+Thymidine	–	100
[2], log10 compound concentration (M): -10.2941, supplement / serum: No metabolite	–	94.6
[2], log10 compound concentration (M): -10.2941, supplement / serum: Sodium Formate	–	95.9
[2], log10 compound concentration (M): -10.2941, supplement / serum: Vehicle	–	87.6
[2], log10 compound concentration (M): -10.7712, supplement / serum: 50 μM Hypoxanthine	–	88.2
[2], log10 compound concentration (M): -10.7712, supplement / serum: 50 μM Thymidine	–	96.2
[2], log10 compound concentration (M): -10.7712, supplement / serum: 50 μM Thymidine + 50 μM Hypoxanthine	–	110
[2], log10 compound concentration (M): -10.7712, supplement / serum: Hypoxanthine	–	98.1
[2], log10 compound concentration (M): -10.7712, supplement / serum: Hypoxanthine+Sodium Formate	–	92.28
[2], log10 compound concentration (M): -10.7712, supplement / serum: Hypoxanthine+Sodium Formate+Thymidine	–	103
[2], log10 compound concentration (M): -10.7712, supplement / serum: No metabolite	–	111
[2], log10 compound concentration (M): -10.7712, supplement / serum: Sodium Formate	–	95
[2], log10 compound concentration (M): -10.7712, supplement / serum: Vehicle	–	95.6

cell viability [%], [3]
Settings	0.001 µM	0.00278 µM	0.00774 µM	0.0215 µM	0.0599 µM	0.167 µM	0.464 µM	1.29 µM	3.59 µM	10 µM
metabolite supplement: 50uM thymidine	96.3	96.8	91.8	36.4	31.6	31.9	31.5	31.6	31.3	31.5
metabolite supplement: 50uM thymidine + 250uM hypoxanthine	98.1	101	101	104	107	109	107	106	105	98.1
metabolite supplement: 250uM hypoxanthine	97.7	97.5	99.5	43.6	18.9	16.9	16.7	16.5	16	15.3
metabolite supplement: vehicle	99.2	96.37	66	31.4	19.1	17.6	16.8	16.4	16.2	16.4
